Experimental data: patent publication US20210204539A1, “Method for Suppressing Freezing Damage and Composition for Preventing Freezing Damage” (Kyoto University, priority 2018, published 2021)

Experiments:
S1PR = details: known; cited from earlier work
S1PR5 = S1PR5 (Homo sapiens, UniProt Q9H228); details: reported; cited from earlier work
[1] = test system: human umbilical vascular endothelial cell line HUEhT-2; experiment: Cold storage time versus viability, HUEhT-2 (Example 2); type: cell-based; details: HUEhT-2, 10 μM
Experimental: (§1) Then, the culturing at 4° C. in a low temperature incubator was performed. The cell viability one hour after the rewarming using a medium at 37° C. was determined by detecting enzyme activity with use of alamarBlue™. The relationship between the cold storage time and the viability was observed.

S1PR1 = S1PR1 (Homo sapiens, UniProt P21453); details: reported; cited from earlier work
Chain of S1PR1 (P21453 whole entry, species assumed): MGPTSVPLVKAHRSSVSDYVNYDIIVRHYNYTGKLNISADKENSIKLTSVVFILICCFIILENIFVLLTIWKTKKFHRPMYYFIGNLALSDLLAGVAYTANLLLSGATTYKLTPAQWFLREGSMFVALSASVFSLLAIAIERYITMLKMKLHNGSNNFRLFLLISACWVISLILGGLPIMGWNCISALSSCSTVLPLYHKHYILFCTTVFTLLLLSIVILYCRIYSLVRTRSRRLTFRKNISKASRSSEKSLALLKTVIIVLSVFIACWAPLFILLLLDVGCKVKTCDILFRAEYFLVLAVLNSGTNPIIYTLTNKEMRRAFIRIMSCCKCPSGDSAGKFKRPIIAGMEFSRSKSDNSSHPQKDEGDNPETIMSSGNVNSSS

[2] = test system: cell line HepG2 derived from a human liver cancer; experiment: Cold damage suppression, HepG2 cultured at 4° C. for 24 hours, viability after rewarming by alamarBlue (Examples 1, 5, 6); type: cell-based; details: HepG2, 4° C. 24 hours, compound 0 M to 50 μM, viability one hour after rewarming at 37° C.
Experimental: Then, the culturing at 4° C. in a low temperature incubator was performed for 24 hours. After the culturing at low temperature for 24 hours, rewarming was carried out using a medium at 37° C., and the viability of cells one hour after the rewarming was determined by detecting enzyme activity using alamarBlue™. The compound concentration was varied from 0 M (Vehicle) to 50 μM, so that the concentration dependency of the compound was observed.
Using the compounds 1 and 3 to 7 synthesized by the above-described scheme, the cell line HepG2 derived from a human liver cancer was cultured under the presence of the respective compounds at low temperature, and cold damage suppression effects were assessed.
HepG2 cells were cultured at 37° C. so as to be at a density of 80 to 90%, and thereafter, the medium was replaced with a medium (DMEM) at 4° C. to which any one of the compounds 1 and 3 to 7 had been added preliminarily. Then, the culturing at 4° C. in a low temperature incubator was performed for 24 hours. After the culturing at low temperature for 24 hours, rewarming was carried out by a medium at 37° C., and the viability of cells one hour […] determined by detecting enzyme activity using alamarBlue™. The compound concentration was varied from 0 M (Vehicle) to 50 μM, so that the concentration dependency of the compound was observed. […]

[3] = test system: cell line HepG2 derived from a human liver cancer; experiment: Cold storage time versus viability, HepG2 (Example 2); type: cell-based; details: HepG2, 10 μM, 4° C., versus Vehicle
Experimental: as §1

[4] = test system: cells preserved at low temperature; experiment: Cold damage suppression at varied timings of contact with the compound (Example 3); type: cell-based
Experimental: Cells were cultured at 37° C. so as to be at a density of 80 to 90%, and thereafter, the medium was replaced with a medium at 4° C. Then, the culturing at 4° C. in a low temperature incubator was performed. […] The cell viability one hour after the rewarming using a medium at 37° C. was determined by detecting enzyme activity with use of alamarBlue™.

S1PR2 = S1PR2 (Homo sapiens, UniProt O95136); details: reported; cited from earlier work
Chain of S1PR2 (O95136 whole entry, species assumed): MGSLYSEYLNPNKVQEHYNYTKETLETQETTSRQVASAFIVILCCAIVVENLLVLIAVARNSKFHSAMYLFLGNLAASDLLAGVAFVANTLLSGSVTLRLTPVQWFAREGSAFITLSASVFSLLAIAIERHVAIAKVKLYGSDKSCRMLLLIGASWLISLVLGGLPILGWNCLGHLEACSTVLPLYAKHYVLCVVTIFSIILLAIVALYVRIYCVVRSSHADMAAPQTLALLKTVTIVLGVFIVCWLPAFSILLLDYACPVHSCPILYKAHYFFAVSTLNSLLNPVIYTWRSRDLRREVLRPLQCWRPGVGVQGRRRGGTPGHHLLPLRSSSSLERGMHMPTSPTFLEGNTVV

S1PR4 = biological target: T1, S1PR4 (Homo sapiens, UniProt O95977); details: reported; cited from earlier work
T1 sequence (O95977 1-384): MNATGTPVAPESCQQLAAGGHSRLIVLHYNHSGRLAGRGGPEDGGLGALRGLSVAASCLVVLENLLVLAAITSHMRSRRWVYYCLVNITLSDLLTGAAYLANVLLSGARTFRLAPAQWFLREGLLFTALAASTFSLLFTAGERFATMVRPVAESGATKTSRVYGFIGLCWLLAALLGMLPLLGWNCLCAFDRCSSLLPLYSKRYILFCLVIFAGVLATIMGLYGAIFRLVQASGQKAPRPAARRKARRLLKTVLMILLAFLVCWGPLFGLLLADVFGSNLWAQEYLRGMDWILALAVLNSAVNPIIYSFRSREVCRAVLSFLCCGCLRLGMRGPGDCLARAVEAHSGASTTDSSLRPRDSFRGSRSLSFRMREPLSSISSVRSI

Flp-In™ CHO cell line = experiment: Cold storage time versus viability, Flp-In CHO (Example 2); type: cell-based
Experimental: as §1

[5] = test system: myocardium in the hearts of transplanted rats; experiment: Rat heart 24-hour cold storage and ectopic transplantation, Masson's trichrome staining (Example 4); type: in vivo, LEW rats; details: UW solution with 10 μM, 24-hour cold storage at 4° C., one week after transplantation, versus Vehicle group
Experimental: To each of 7 to 8 week-old LEW rats as recipients, laparotomy under general anesthesia was performed to expose the abdominal aorta and the vena cava. Then, the heart in cold storage was taken out of the UW solution, and ectopic transplantation was carried out, by end-to-side anastomosis between the pulmonary artery and the aorta of the donor and the abdominal vena cava and the aorta of the recipient, respectively, followed by laparotomy closure. The heart was removed one week after the transplantation, and the viable area and fibrotic area of myocardium in the heart were compared by using Masson's trichrome staining (N=5 in each group).

the cells = experiment: Toxicity to the cells when administered at a time other than the low-temperature preservation; type: cell-based; details: e.g. during a normal-temperature preservation

Chain of S1PR5 (Q9H228 whole entry, species assumed): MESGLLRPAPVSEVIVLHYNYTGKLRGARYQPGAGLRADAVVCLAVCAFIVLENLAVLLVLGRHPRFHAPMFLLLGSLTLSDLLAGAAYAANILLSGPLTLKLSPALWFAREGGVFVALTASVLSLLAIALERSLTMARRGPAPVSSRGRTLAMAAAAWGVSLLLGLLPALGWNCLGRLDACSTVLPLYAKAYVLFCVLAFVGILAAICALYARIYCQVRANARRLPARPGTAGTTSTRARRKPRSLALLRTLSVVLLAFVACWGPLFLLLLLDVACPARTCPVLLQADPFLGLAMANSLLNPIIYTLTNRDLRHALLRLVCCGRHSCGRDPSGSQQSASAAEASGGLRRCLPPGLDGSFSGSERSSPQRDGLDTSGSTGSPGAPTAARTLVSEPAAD

SMILES	S1PR antagonist (S1PR)	inhibiting activity to S1PR5 (S1PR5)	amelioration of the deterioration of cell viability during the low-temperature preservation ([1]; 4° C., versus Vehicle)	viability at 10 µM ([1]; Homo sapiens, Endothelial cell, 360 h, low-temperature preservation period 15 days) [%]	inhibiting activity to S1PR1 (S1PR1)	amelioration of the deterioration of cell viability during the low-temperature preservation (cold damage suppression) [2]	amelioration of the deterioration of cell viability during the low-temperature preservation [3]	cold damage (deterioration of viability) suppression ([4]; 10 μM added simultaneously with the start of the low-temperature preservation)	cold damage (deterioration of viability) suppression ([4]; 10 μM added to the medium before the start of the low-temperature preservation)	cold damage (deterioration of viability) suppression ([4]; 10 μM added when the temperature was turned to 37° C. after the low-temperature preservation (Rewarm treat))	inhibiting activity to S1PR2 (S1PR2)	inhibiting activity to S1PR4 (S1PR4)	amelioration of the deterioration of cell viability during the low-temperature preservation (Flp-In™ CHO cell line; 10 μM, 4° C., versus Vehicle)	viability at 10 µM (Flp-In™ CHO cell line; Cricetulus griseus, 360 h, low-temperature preservation period 15 days) [%]	fibrotic area of myocardium [5]	viable area of myocardium [5]	toxicity to the cells (the cells)
CC(C)(C)C(=O)/C(=N/c1ccc(Cl)cc1)NNc1ccc(Cl)cc1 [Compound 1, N-(4-chlorophenyl)-N′-(4-chlorophenylamino)-3,3-dimethyl-2-oxobutanamidine]	S1PR antagonists	has an inhibiting activity	amelioration of the deterioration of cell viability	> 50	has an inhibiting activity	concentration-dependent amelioration	amelioration of the deterioration of cell viability	could be suppressed	could be suppressed	not sufficiently suppressed	has an inhibiting activity	has an inhibiting activity	amelioration of the deterioration of cell viability	> 50	less fibrotic one	more viable myocardium	did not exhibit toxicity
Cc1nn(C)c2nc(NNC(=O)Nc3cc(Cl)nc(Cl)c3)cc(C(C)C)c12 [Compound 2, N-(2,6-dichloro-4-pyridinyl)-2-[1,3-dimethyl-4-(1-methylethyl)-1H-pyrazolo[3,4-b]pyridin-6-yl]-hydrazinecarboxamide]	S1PR antagonists					concentration-dependent amelioration											did not exhibit toxicity
